Data taken from US9765038B2, “Heteroaryl compounds and uses thereof” (Celgene CAR LLC, priority 2010, dated 2017).

Key:
[1] = biological target: T1, EGFR T790M/L858R (Homo sapiens (Human), UniProt P00533, L858R/T790M); settings: for covalent modification of the protein: intact protein MS, I-1 within 30 minutes
[2] = biological target: T1, EGFR T790M/L858R; experiment: Omnia assay, EGFR (T790M/L858R) active enzyme; format: biochemical; settings: for Ratio WT/mutant: biochemical IC50, WT EGFR vs EGFR (T790M/L858R); for IC50: [EGFR-T790M/L858R]=2.5 nM, [ATP]=20 uM, 30 min pre-incubation
Description: (§7) Kinase reactions were started with the addition of 45 μL of the ATP/Tyr-Sox peptide substrate mix and monitored every 71 seconds for 60 minutes at λex360/λem485 in a Synergy^4 plate reader from BioTek (Winooski, Vt.).

[3] = biological target: EGFR delE746-A750 mutation (HCC827 cells) (Homo sapiens (Human), UniProt P00533, DEL746-750); experiment: EGFR signaling immunoblot in HCC827 cells; format: cell-based; settings: for Ratio WT/mutant: signaling EC50, WT EGFR (A431) vs HCC827
Description: (§1) A431 human epidermoid carcinoma, H1975 human NSCLC and HCC827 human NSCLC adenocarcinoma cells were obtained from the American Type Culture Center (Manassas, Va.). A431 cells were grown in DMEM (Invitrogen, Carlsbad, Calif.) supplemented with 10% FBS (HyClone, South Logan, Utah) and 1% Penicillin-Streptomycin (P/S, Lonza, Walkersville, Md.).
(§2) All primary antibodies were obtained from Cell Signaling (Danvers, Mass.) and used at 1:1000. Secondary antibodies were used at 1:10,000. Goat anti-mouse IgG IRDye 800CW antibody was obtained from LiCor Biosciences (Lincoln, Nebr.) and goat anti-rabbit IgG Alexa Fluor 680 was obtained from Invitrogen.
(§3) Cells were grown in 12-well plates (Corning, Coring, N.Y.) to 90% confluence and then incubated in low-serum (0.1% FBS) media for 16-18 hr. […] A431 cells were then stimulated with 50 ng/ml EGF (Peprotech, Rocky Hill, N.J.) for 15 min. After treatment, cell monolayers were washed with cold PBS (Invitrogen) and immediately lysed by scrapping into 60 uL cold Cell Extraction Buffer (Invitrogen) supplemented with Complete Protease inhibitors (Roche, Indianapolis, Ind.) and PhosphoSTOP (Roche) phosphatase inhibitors.
(§4) Phospho-protein signals were quantitated using Odyssey Infrared Imaging (Li-Cor Biosciences).
(§5) Blots were normalized as indicated above. […] Normalized data was fitted using a sigmoidal curve analysis program (Graph Pad Prism version 5) with variable Hill slope to determine the EC50 values.

[4] = biological target: EGFR double mutation L858R/T790M (H1975 cells) (Homo sapiens (Human), UniProt P00533, L858R/T790M); experiment: EGFR signaling immunoblot (phospho-EGFR, phospho-S6) in H1975 cells; format: cell-based; settings: for Ratio WT/mutant: signaling EC50, WT EGFR (A431) vs H1975
Description: as §1, §2, §3, §4, §5

[5] = biological target: pEGFR in H1975 cells (Homo sapiens (Human), UniProt P00533, L858R/T790M); settings: 500 nM for 1 hr, washout up to 24 hr, FIG. 3
[6] = system: H1975 cells (EGFR L858R/T790M); experiment: Cell proliferation (CellTiter Glo), H1975 cells; format: cell-based, human; settings: GI50, WT EGFR (A431) vs H1975
Description: as §1
(§6) Growth inhibition (GI50) values were determined by Graph Pad Prism.

[7] = biological target: WT EGFR (A431 cells) (Homo sapiens (Human), UniProt P00533); experiment: EGFR signaling immunoblot (phospho-EGFR, phospho-S6) in A431 cells; format: cell-based; settings: FIG. 2
Description: as §1, §2, §3, §4
Blots were normalized as indicated above. […]

[8] = system: HCC827 cells (EGFR delE746-A750); experiment: Cell proliferation (CellTiter Glo), HCC827 cells; format: cell-based, human; settings: GI50, WT EGFR (A431) vs HCC827
Description: as §1, §6

[9] = biological target: EGFR-WT (Homo sapiens (Human), UniProt P00533); experiment: Omnia assay, EGFR (WT) active enzyme; format: biochemical; settings: [EGFR-WT]=5 nM, [ATP]=15 uM, 30 min pre-incubation
Description: as §7

[10] = 10-fold excess of compound, MALDI, FIG. 4

SMILES | Ratio WT/mutant [2] | Ratio WT/mutant [4] | other results
C=CC(=O)Nc1cccc(Nc2nc(Nc3ccccc3OC)ncc2C(F)(F)F)c1 [Compound I-1, N-(3-(2-(2-methoxyphenylamino)-5-(trifluoromethyl)pyrimidin-4-ylamino)phenyl)acrylamide] | >50 | >50 | mass shift [1, 10]: 488 Da; mass shift relative to compound mass [1, 10]: 113%; covalent modification of the protein [1]: completely modifies; Ratio WT/mutant [3]: >50; duration of action after washout (pEGFR) [5]: prolonged duration of action
C=CC(=O)Nc1cccc(Oc2nc(Nc3ccccc3OC)ncc2F)c1 [Compound I-19, N-(3-(5-fluoro-2-(2-methoxyphenylamino)pyrimidin-4-yloxy)phenyl)acrylamide] | >10 | – | –
C=CC(=O)Nc1cccc(Oc2nc(Nc3ccccc3OC)ncc2C(F)(F)F)c1 [Compound I-2, N-(3-(2-(2-methoxyphenylamino)-5-(trifluoromethyl)pyrimidin-4-yloxy)phenyl)acrylamide] | – | – | covalent modification of the protein [1]: covalently modify the protein; duration of action after washout (pEGFR) [5]: prolonged duration of action
C=CC(=O)Nc1cccc(Oc2nc(Nc3ccc(OC)c(OC)c3OC)ncc2Cl)c1 [Compound I-7, N-(3-(5-chloro-2-(2,3,4-trimethoxyphenylamino)pyrimidin-4-yloxy)phenyl)acrylamide] | >25 | >50 | covalent modification of the protein [1]: covalently modify the protein; Ratio WT/mutant [6]: >10; inhibition of pEGFR and downstream S6 ribosomal protein ([4]; H1975 cells, FIG. 1 and FIG. 2): inhibiting pEGFR and its downstream target S6 Ribosomal protein; WT-EGFR sparing [7]: completely WT-EGFR sparing; Ratio WT/mutant [8]: >15
C=CC(=O)Nc1cccc(Nc2nc(Nc3ccc(OC)cc3OC)ncc2Br)c1 [Compound I-20, N-(3-(5-bromo-2-(2,4-dimethoxyphenylamino)pyrimidin-4-ylamino)phenyl)acrylamide] | >45 | – | –
C=CC(=O)Nc1cccc(Nc2nc(Nc3ccc(OC)cc3OC)ncc2Cl)c1 [Compound I-21, N-(3-(5-chloro-2-(2,4-dimethoxyphenylamino)pyrimidin-4-ylamino)phenyl)acrylamide] | >50 | >5 | –
C=CC(=O)Nc1cccc(Nc2nc(Nc3cccc(OC)c3OC)ncc2Br)c1 [Compound I-14, N-(3-(5-bromo-2-(2,3-dimethoxyphenylamino)pyrimidin-4-ylamino)phenyl)acrylamide] | >50 | – | IC50 [2]: 0.001 to 0.01 µM; IC50 [9]: 0.3 to 1 µM
C=CC(=O)Nc1cccc(Oc2nc(Nc3cccc(OC)c3OC)ncc2Br)c1 [Compound I-6, N-(3-(5-bromo-2-(2,3-dimethoxyphenylamino)pyrimidin-4-yloxy)phenyl)acrylamide] | >45 | – | –
C=CC(=O)Nc1cccc(Oc2nc(Nc3cccc(OC)c3OC)ncc2Cl)c1 [Compound I-17, N-(3-(5-chloro-2-(2,3-dimethoxyphenylamino)pyrimidin-4-yloxy)phenyl)acrylamide] | >35 | – | IC50 [2]: 0.01 to 0.1 µM; EC50 ([3]; HCC827 cells, signaling, 1 hr): 0.5 to 1 µM; IC50 [9]: 0.3 to 1 µM
C=CC(=O)Nc1cccc(Nc2nc(Nc3ccccc3OC)ncc2Cl)c1 [Compound I-18, N-(3-(5-chloro-2-(2-methoxyphenylamino)pyrimidin-4-ylamino)phenyl)acrylamide] | >30 | – | –
C=CC(=O)Nc1cccc(Nc2nc(Nc3ccc(OC)c(OC)c3OC)ncc2Br)c1 [Compound I-5, N-(3-(5-bromo-2-(2,3,4-trimethoxyphenylamino)pyrimidin-4-ylamino)phenyl)acrylamide] | >45 | >50 | –
C=CC(=O)Nc1cccc(Nc2nc(Nc3ccc(OC)c(OC)c3OC)ncc2C(F)(F)F)c1 [Compound I-11, N-(3-(5-(trifluoromethyl)-2-(2,3,4-trimethoxyphenylamino)pyrimidin-4-ylamino)phenyl)acrylamide] | >25 | >50 | Ratio WT/mutant [3]: >5
C=CC(=O)Nc1cccc(Oc2nc(Nc3ccc(OC)c(OC)c3OC)ncc2C(F)(F)F)c1 [Compound I-10, N-(3-(5-(trifluoromethyl)-2-(2,3,4-trimethoxyphenylamino)pyrimidin-4-yloxy)phenyl)acrylamide] | >50 | >50 | –
